# Reference: patent US20260027068A1, “METHODS OF ADM[…]-KETAMINE” (Perception Neuroscience, Inc., priority 2022, published 2026)
# Experiment: Respiratory rate (vital signs)
# Details: 30 mg
# Method: The Investigational Medicinal Product (IMP) R(−)-ketamine hydrochloride in sterile water for intravenous injection was investigated as an […] treatment of TRD. The International Union of Pure and Applied Chemistry (IUPAC) name is of the IMP is (2R)-2-(2-chlorophenyl)-2-(methylamino)cyclohexan-1-one. Subjects received the solution at either 30 mg or 60 mg dose, or a placebo. The IMP or placebo was administered on Day 1 as a single IV infusion via an electronic infusion pump over 40 minutes. The duration of study participation for each subject was up to 29 days including a screening period, a 3-day in-clinic visit, and 2 follow-up visits. 101 subjects were enrolled in approximately 20 study centers in the EU and the US.
# Tympanic or temporal temperature, heart rate, blood pressure (SBP/DBP), respiratory rate, and SpO2 were assessed. Blood pressure and pulse measurements will be assessed with a completely automated device while the subject is supine or semi-supine. Manual techniques will be used only if an automated device is not available. Blood pressure and pulse measurements should be preceded by at least 5 minutes of rest for the subject in a quiet setting without distractions (e.g., television, cell phones). An abnormal blood pressure value at screening may be repeated once after 5 minutes of relaxation to determine the subject's eligibility. Blood pressure was recorded using the same arm and position (supine or semi-supine) throughout the study, where possible. Vital signs (to be taken before blood collection for laboratory tests) consisted of 1 pulse and 3 blood pressure measurements (3 consecutive blood pressure readings will be recorded at intervals of at least 1 minute). The average of the 3 blood pressure readings was recorded in the CRF. A pulse oximeter was used to measure peripheral capillary oxygen saturation (SpO2) continuously from pre-dose until 4-hours post-dose. A pulse oximeter was clipped onto the finger or foot of the subject, and light will be sent through the finger or foot and measured on the other side.
# In these tables, baseline value is defined as the last non-missing value prior to study drug administration.
smiles,measurement,setting,value
"CN[C@@]1(c2ccccc2Cl)CCCCC1=O.Cl [R(−)-ketamine, (2R)-2-(2-chlorophenyl)-2-(methylamino)cyclohexan-1-one]","Respiratory Rate, Max","Day 1, 15 minutes",22 breaths/minute
same,"Respiratory Rate, Mean","Day 1, 15 minutes",16.0 breaths/minute
same,"Respiratory Rate, Median","Day 1, 15 minutes",16.0 breaths/minute
same,"Respiratory Rate, Min","Day 1, 15 minutes",14 breaths/minute
same,"Respiratory Rate, Max","Day 1, 40 minutes",18 breaths/minute
same,"Respiratory Rate, Mean","Day 1, 40 minutes",15.7 breaths/minute
same,"Respiratory Rate, Median","Day 1, 40 minutes",16.0 breaths/minute
same,"Respiratory Rate, Min","Day 1, 40 minutes",13 breaths/minute
same,"Respiratory Rate, Max","Day 1, 60 minutes",17 breaths/minute
same,"Respiratory Rate, Mean","Day 1, 60 minutes",15.4 breaths/minute
same,"Respiratory Rate, Median","Day 1, 60 minutes",15.5 breaths/minute
same,"Respiratory Rate, Min","Day 1, 60 minutes",14 breaths/minute
same,"Respiratory Rate, Max","Day 1, 2 hours",18 breaths/minute
same,"Respiratory Rate, Mean","Day 1, 2 hours",15.9 breaths/minute
same,"Respiratory Rate, Median","Day 1, 2 hours",16.0 breaths/minute
same,"Respiratory Rate, Min","Day 1, 2 hours",13 breaths/minute
same,"Respiratory Rate, Max","Day 1, 4 hours",21 breaths/minute
same,"Respiratory Rate, Mean","Day 1, 4 hours",16.1 breaths/minute
same,"Respiratory Rate, Median","Day 1, 4 hours",16.0 breaths/minute
same,"Respiratory Rate, Min","Day 1, 4 hours",14 breaths/minute
same,"Respiratory Rate, Max","Day 1, 6 hours",18 breaths/minute
same,"Respiratory Rate, Mean","Day 1, 6 hours",15.9 breaths/minute
same,"Respiratory Rate, Median","Day 1, 6 hours",16.0 breaths/minute
same,"Respiratory Rate, Min","Day 1, 6 hours",14 breaths/minute
same,"Respiratory Rate, Max",Day 2 - Discharge,21 breaths/minute
same,"Respiratory Rate, Mean",Day 2 - Discharge,15.9 breaths/minute
same,"Respiratory Rate, Median",Day 2 - Discharge,16.0 breaths/minute
same,"Respiratory Rate, Min",Day 2 - Discharge,14 breaths/minute
same,"Respiratory Rate, Max",Day 8,18 breaths/minute
same,"Respiratory Rate, Mean",Day 8,15.9 breaths/minute
same,"Respiratory Rate, Median",Day 8,16.0 breaths/minute
same,"Respiratory Rate, Min",Day 8,14 breaths/minute
same,"Respiratory Rate, Max",Day 15,18 breaths/minute
same,"Respiratory Rate, Mean",Day 15,15.7 breaths/minute
same,"Respiratory Rate, Median",Day 15,16.0 breaths/minute
same,"Respiratory Rate, Min",Day 15,14 breaths/minute
same,"Respiratory Rate, Change from Baseline, Max","to Day 1, 15 minutes",3 breaths/minute
same,"Respiratory Rate, Change from Baseline, Mean","to Day 1, 15 minutes",0.1 breaths/minute
same,"Respiratory Rate, Change from Baseline, Median","to Day 1, 15 minutes",0.0 breaths/minute
same,"Respiratory Rate, Change from Baseline, Min","to Day 1, 15 minutes",−3 breaths/minute
same,"Respiratory Rate, Change from Baseline, Max","to Day 1, 40 minutes",2 breaths/minute
same,"Respiratory Rate, Change from Baseline, Mean","to Day 1, 40 minutes",−0.2 breaths/minute
same,"Respiratory Rate, Change from Baseline, Median","to Day 1, 40 minutes",0.0 breaths/minute
same,"Respiratory Rate, Change from Baseline, Min","to Day 1, 40 minutes",−5 breaths/minute
same,"Respiratory Rate, Change from Baseline, Max","to Day 1, 60 minutes",3 breaths/minute
same,"Respiratory Rate, Change from Baseline, Mean","to Day 1, 60 minutes",−0.4 breaths/minute
same,"Respiratory Rate, Change from Baseline, Median","to Day 1, 60 minutes",0.0 breaths/minute
same,"Respiratory Rate, Change from Baseline, Min","to Day 1, 60 minutes",−5 breaths/minute
same,"Respiratory Rate, Change from Baseline, Max","to Day 1, 2 hours",3 breaths/minute
same,"Respiratory Rate, Change from Baseline, Mean","to Day 1, 2 hours",−0.1 breaths/minute
same,"Respiratory Rate, Change from Baseline, Median","to Day 1, 2 hours",0.0 breaths/minute
same,"Respiratory Rate, Change from Baseline, Min","to Day 1, 2 hours",−2 breaths/minute
same,"Respiratory Rate, Change from Baseline, Max","to Day 1, 4 hours",2 breaths/minute
same,"Respiratory Rate, Change from Baseline, Mean","to Day 1, 4 hours",0.2 breaths/minute
same,"Respiratory Rate, Change from Baseline, Median","to Day 1, 4 hours",0.0 breaths/minute
same,"Respiratory Rate, Change from Baseline, Min","to Day 1, 4 hours",−2 breaths/minute
same,"Respiratory Rate, Change from Baseline, Max","to Day 1, 6 hours",2 breaths/minute
same,"Respiratory Rate, Change from Baseline, Mean","to Day 1, 6 hours",−0.0 breaths/minute
same,"Respiratory Rate, Change from Baseline, Median","to Day 1, 6 hours",0.0 breaths/minute
same,"Respiratory Rate, Change from Baseline, Min","to Day 1, 6 hours",−3 breaths/minute
same,"Respiratory Rate, Change from Baseline, Max",to Day 2 - Discharge,1 breaths/minute
same,"Respiratory Rate, Change from Baseline, Mean",to Day 2 - Discharge,−0.1 breaths/minute
same,"Respiratory Rate, Change from Baseline, Median",to Day 2 - Discharge,0.0 breaths/minute
same,"Respiratory Rate, Change from Baseline, Min",to Day 2 - Discharge,−4 breaths/minute
same,"Respiratory Rate, Change from Baseline, Max",to Day 8,3 breaths/minute
same,"Respiratory Rate, Change from Baseline, Mean",to Day 8,−0.1 breaths/minute
same,"Respiratory Rate, Change from Baseline, Median",to Day 8,0.0 breaths/minute
same,"Respiratory Rate, Change from Baseline, Min",to Day 8,−5 breaths/minute
same,"Respiratory Rate, Change from Baseline, Max",to Day 15,1 breaths/minute
same,"Respiratory Rate, Change from Baseline, Mean",to Day 15,−0.3 breaths/minute
same,"Respiratory Rate, Change from Baseline, Median",to Day 15,0.0 breaths/minute
same,"Respiratory Rate, Change from Baseline, Min",to Day 15,−6 breaths/minute
